Entries after “also recorded” stand apart in the source; their conditions may differ.
Columns and labels:
naive C57BL/6J mice [1] = assay: HA challenge: oropharyngeal instillation of hyaluronan into naive mice, AHR measured invasively; type: in vivo; conditions: 50 μl of 0.5 mg/ml oropharyngeal, AHR 2-4 hours later, compared to vehicle
Method: (§1) HA challenge: Sterile, endotoxin-free (0.00008 EU/ml) high molecular weight hyaluronan (HMW-HA) (Healon, AMO, Santa Ana, Calif.) was reconstituted at 0.5 mg/ml in 0.02 M acetate/0.15 M sodium chloride, pH 6.0. For the production of low molecular weight (also known as short-fragment) hyaluronan (sHA), healon was sonicated on ice. Sizes were confirmed by electrophoresis according to known methods (Lee and Cowman Anal Biochem 219(2):278-287, 1994). In some experiments, 50 μl of HMW-HA, sHA, or vehicle were instilled oropharyngeally into isoflurane-anesthetized mice, and AHR was measured invasively 2-4 hours later. In other experiments, 50 μl of HMW-HA or vehicle was instilled 1 hour before and 23 hours after acute ozone exposure, and AHR was measured invasively 24 hours after ozone exposure.
(§2) Airway Physiology: Twenty four hours after the beginning of exposure, tracheas of anesthetized mice (pentobarbital sodium, 60 mg/kg i.p.) were surgically dissected and intubated, mice were paralyzed (pancuronium bromide, […] i.v.) and ventilated with a computer-controlled small animal ventilator (FlexiVent™, SCIREQ, Montreal, Canada) at a tidal volume of 7.5 ml/kg and a positive end-expiratory pressure of 3 cm H2O. Forced oscillation was used for measurements of respiratory mechanics. […]

naive C57BL/6J mice [2] = assay: Lung lavage cells after sHA instillation; type: in vivo; conditions: compared to vehicle
Method: as §1
Whole lung lavage: Whole lung lavage was performed according to previously described methods (Hollingsworth et al., Am J Respir Crit Care Med 170(2):126-132, 2004). Supernatants were stored at −70° C.

CD44-deficient mice = assay: HA challenge in CD44-deficient mice, AHR; type: in vivo; conditions: sHA instillation
Method: as §1, §2

[3] = in vivo; cited from earlier work
C57BL/6J mice = assay: Ozone-induced AHR, total lung resistance to methacholine (FlexiVent); type: in vivo; conditions: 50 μl instilled 1 hour before and 23 hours after acute ozone exposure; AHR 24 hours after ozone; vs vehicle
Excerpt: Exposure Protocol: C57BL/6J, CD44−/−, IaI−/− or HAS2 transgenic mice (mice that overexpress HAS2) were exposed to either Hepa-filtered air (FA) or ozone. Animals were housed in cages with low-endotoxin bedding, and given water and chow ad libitum. Ozone exposures were two parts per million (ppm) for three hours. The selection of ozone concentration levels in the mouse was based on similar biological responses observed in human exposure studies and published deposition fraction data for 03 in rodent models (Wiester et al., Toxicol Appl Pharmacol 96(1):140-146, 1988). Exposures were performed in 55-liter Hinner chambers with individual animal slots. […] Chamber ozone concentration was monitored continuously with a UV light photometer (1003AH, Dasibi, Glendale, Calif.). […]
HA challenge: Sterile, endotoxin-free (0.00008 EU/ml) high molecular weight hyaluronan (HMW-HA) (Healon, AMO, Santa Ana, Calif.) was reconstituted at 0.5 mg/ml in 0.02 M acetate/0.15 M sodium chloride, pH 6.0. […] In some experiments, 50 μl of HMW-HA, sHA, or vehicle were instilled oropharyngeally into isoflurane-anesthetized mice, and AHR was measured invasively 2-4 hours later. In other experiments, 50 μl of HMW-HA or vehicle was instilled 1 hour before and 23 hours after acute ozone exposure, and AHR was measured invasively 24 hours after ozone exposure. […]

| Substance | induction of AHR in naive mice (naive C57BL/6J mice [1]) | total cells or cell composition in lung lavage fluid after instillation (naive C57BL/6J mice [2]) | sHA-induced AHR in CD44-deficient mice compared to C57BL/6 (CD44-deficient mice) | bronchoconstrictive response in exercise-induced asthma [3] | ozone-induced AHR with hyaluronan instilled before and after ozone (C57BL/6J mice) |
| --- | --- | --- | --- | --- | --- |
| short-fragment hyaluronan [sHA] | induced AHR | significant changes in total cells or cell composition in the lung lavage fluid were not observed; also recorded: a significant change was not observed in any cell type | resistant to sHA-induced AHR | – | – |
| high molecular weight hyaluronan [HMW-HA] | – | – | – | attenuate the bronchoconstrictive response | significantly ameliorates AHR; also recorded: significant attenuation of AHR |

Reference: patent US20110236381A1, “INHIBITION OF INTER-ALPHA TRYPSIN INHIBITOR FOR THE TREATMENT OF AIRWAY DISEASE” (priority 2008, published 2011)
